# Assays:
# [1] = target: α2 and/or α3 subunit of the human GABAA receptor; experiment: [3H]-flumazenil displacement binding assay, α2 and/or α3 subunit; settings: displacement of [3H]-flumazenil; human GABAA receptors stably expressed in Ltk- cells; read-out: binding affinity (Ki) for the α2 and/or α3 subunit
# Protocol: Assay buffer: 10 mM KH2PO4, 100 mM KCl, pH 7.4 at room temperature.
# Flunitrazepam 100 μM in assay buffer.
# Cells resuspended in assay buffer (1 tray to 10 ml).
# Supernatant is removed from cells. PBS (approximately 20 ml) is added. The cells are scraped and placed in a 50 ml centrifuge tube. The procedure is repeated with a further 10 ml of PBS to ensure that most of the cells are removed. The cells are pelleted by centrifuging for 20 min at 3000 rpm in a benchtop centrifuge, and then frozen if desired. The pellets are resuspended in 10 ml of buffer per tray (25 cm×25 cm) of cells.
# Can be carried out in deep 96-well plates or in tubes. Each tube contains:
# 50 μl of buffer or solvent carrier (e.g. 10% DMSO) if compounds are dissolved in 10% DMSO (total); test compound or flunitrazepam (to determine non-specific binding), 10 μM final concentration.
# Assays are incubated for 1 hour at 40° C., then filtered using either a Tomtec or Brandel cell harvester onto GF/B filters followed by 3×3 ml washes with ice cold assay buffer. Filters are dried and counted by liquid scintillation counting. […] Binding parameters are determined by non-linear least squares regression analysis, from which the inhibition constant Ki can be calculated for each test compound.
# [2] = conditioned suppression of drinking test; settings: in vivo
# [3] = brain penetration inferred from behavioural effects; type: in vivo; settings: inferred because it elicits behavioural effects
# Text: Since it elicits behavioural effects, the triazolo-pyridazine derivative of the invention plainly is brain-penetrant; in other words, it is capable of crossing the so-called “blood-brain barrier”. Advantageously, the triazolo-pyridazine derivative of the invention is capable of exerting its beneficial therapeutic action following administration by the oral route.
# [4] = response sensitivity (chain-pulling) test; settings: in vivo
# α3β3γ2 GABAA/BzR = α3β3γ2 GABAA/BzR (Homo sapiens, UniProt P18507+P34903); experiment: biochemical
# Sequence of α3β3γ2 GABAA/BzR (P18507 whole entry, looked up): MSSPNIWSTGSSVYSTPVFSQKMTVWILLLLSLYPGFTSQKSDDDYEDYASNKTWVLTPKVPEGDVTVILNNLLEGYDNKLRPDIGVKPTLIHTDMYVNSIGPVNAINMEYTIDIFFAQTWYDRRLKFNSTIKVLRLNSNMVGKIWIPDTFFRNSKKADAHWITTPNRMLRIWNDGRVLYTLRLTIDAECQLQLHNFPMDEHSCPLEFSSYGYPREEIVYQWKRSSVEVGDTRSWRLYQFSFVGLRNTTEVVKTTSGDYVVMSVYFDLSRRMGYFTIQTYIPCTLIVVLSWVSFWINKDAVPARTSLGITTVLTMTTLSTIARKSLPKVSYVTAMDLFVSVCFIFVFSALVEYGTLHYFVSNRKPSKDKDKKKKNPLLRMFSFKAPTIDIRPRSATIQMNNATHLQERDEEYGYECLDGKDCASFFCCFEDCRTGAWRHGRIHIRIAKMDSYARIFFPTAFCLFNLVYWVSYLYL
# Sequence of α3β3γ2 GABAA/BzR (P34903 whole entry, looked up): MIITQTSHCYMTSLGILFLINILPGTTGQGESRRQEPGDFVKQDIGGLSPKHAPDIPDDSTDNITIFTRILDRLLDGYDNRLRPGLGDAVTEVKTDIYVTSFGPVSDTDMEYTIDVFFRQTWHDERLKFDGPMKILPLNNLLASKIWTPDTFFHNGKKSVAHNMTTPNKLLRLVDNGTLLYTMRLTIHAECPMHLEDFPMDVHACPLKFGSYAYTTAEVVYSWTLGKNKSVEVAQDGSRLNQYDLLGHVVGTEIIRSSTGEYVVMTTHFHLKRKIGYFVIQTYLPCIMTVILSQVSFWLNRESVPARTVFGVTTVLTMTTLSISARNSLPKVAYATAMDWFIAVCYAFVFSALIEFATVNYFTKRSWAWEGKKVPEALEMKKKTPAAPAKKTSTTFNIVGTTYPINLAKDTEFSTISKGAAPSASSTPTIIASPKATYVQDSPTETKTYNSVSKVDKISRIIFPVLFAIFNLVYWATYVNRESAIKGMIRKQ
# [5] = target: T1, α3 subunit of the human GABAA receptor relative to α1 subunit (Homo sapiens, UniProt P18507+P34903); experiment: potentiation of the GABA EC20 response in stably transfected recombinant cell lines; type: cell-based; settings: stably transfected recombinant cell lines expressing α3 vs α1 subunit of the human GABAA receptor
# T1 construct: expressed in transfected cells; host or cells: stably transfected eukaryotic cells, typically mouse Ltk- fibroblasts
# T1 sequence (P34903 29-492): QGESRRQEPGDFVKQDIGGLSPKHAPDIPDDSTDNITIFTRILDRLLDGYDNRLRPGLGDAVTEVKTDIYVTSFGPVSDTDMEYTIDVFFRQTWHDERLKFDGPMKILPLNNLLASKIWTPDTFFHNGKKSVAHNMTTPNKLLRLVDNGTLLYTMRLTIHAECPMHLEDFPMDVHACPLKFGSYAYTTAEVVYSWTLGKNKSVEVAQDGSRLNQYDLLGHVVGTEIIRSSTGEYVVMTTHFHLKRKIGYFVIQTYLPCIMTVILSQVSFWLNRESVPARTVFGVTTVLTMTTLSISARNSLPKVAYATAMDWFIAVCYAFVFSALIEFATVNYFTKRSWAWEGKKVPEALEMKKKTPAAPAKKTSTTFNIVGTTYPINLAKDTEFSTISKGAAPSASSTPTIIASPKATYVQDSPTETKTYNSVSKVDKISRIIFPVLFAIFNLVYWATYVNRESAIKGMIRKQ
# T1 sequence (P28472 26-473 partner): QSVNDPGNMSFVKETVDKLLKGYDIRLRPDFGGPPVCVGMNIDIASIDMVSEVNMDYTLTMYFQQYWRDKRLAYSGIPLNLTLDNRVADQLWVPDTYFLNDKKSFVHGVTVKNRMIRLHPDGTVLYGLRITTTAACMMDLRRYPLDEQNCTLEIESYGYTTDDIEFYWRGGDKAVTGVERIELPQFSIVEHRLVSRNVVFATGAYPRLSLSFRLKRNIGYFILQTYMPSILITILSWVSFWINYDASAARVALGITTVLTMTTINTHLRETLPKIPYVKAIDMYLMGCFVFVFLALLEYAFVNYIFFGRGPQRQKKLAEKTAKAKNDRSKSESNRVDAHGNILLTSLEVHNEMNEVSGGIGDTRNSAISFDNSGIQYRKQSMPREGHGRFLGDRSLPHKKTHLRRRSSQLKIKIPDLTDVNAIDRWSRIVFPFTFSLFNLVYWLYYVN
# T1 sequence (P18507 40-467 limits assumed): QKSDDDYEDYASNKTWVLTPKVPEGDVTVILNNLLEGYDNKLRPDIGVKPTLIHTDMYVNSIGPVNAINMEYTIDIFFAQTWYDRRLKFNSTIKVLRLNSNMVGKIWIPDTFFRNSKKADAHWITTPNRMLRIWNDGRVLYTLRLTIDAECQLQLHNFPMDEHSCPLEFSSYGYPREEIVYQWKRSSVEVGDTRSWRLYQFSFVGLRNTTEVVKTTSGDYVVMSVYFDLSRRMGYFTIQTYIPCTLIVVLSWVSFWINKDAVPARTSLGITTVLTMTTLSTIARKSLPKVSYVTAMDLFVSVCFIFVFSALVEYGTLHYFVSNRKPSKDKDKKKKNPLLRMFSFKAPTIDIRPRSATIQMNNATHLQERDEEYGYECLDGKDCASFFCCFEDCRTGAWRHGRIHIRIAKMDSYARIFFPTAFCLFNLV
# Text: The potentiation of the GABA EC20 response in stably transfected cell lines expressing the α3 and α1 subunits of the human GABAA receptor can conveniently be measured by procedures analogous to the protocol described in Wafford et al., Mol. Pharmacol., 1996, 50, 670-678. The procedure will suitably be carried out utilising cultures of stably transfected eukaryotic cells, typically of stably transfected mouse Ltk^− fibroblast cells.
# elevated plus maze test = settings: in vivo
compound,measurement,setting,value
"CCn1ncnc1COc1nn2c(-c3ccccc3F)nnc2cc1C(C)(C)C [triazolo-pyridazine derivative, 7-(1,1-dimethylethyl)-6-(2-ethyl-2H-1,2,4-triazol-3-ylmethoxy)-3-(2-fluorophenyl)-1,2,4-triazolo[4,3-b]pyridazine]",Ki,[1],< 1 nM
same,"anxiolytic activity, conditioned suppression of drinking",[2],positive response
same,brain penetration (crossing the blood-brain barrier),[3],brain-penetrant
same,"sedation, response sensitivity (chain-pulling) test",[4],substantially non-sedating
same,Ki,α3β3γ2 GABAA/BzR,< 1 nM
same,"potentiation of the GABA EC20 response, α3 relative to α1",[5],selective potentiation
same,"anxiolytic activity, elevated plus maze",elevated plus maze test,positive response

# — patent US20040259818A1, “Glucoronide adduct as gaba ligand” (priority 2001, published 2004)
